Measurements published in ChEMBL document CHEMBL1629662, “Antimicrobial activity of prulifloxacin tested against a worldwide collection of gastroenteritis-producing pathogens, including those causing traveler's diarrhea” (2009).

Assays:
Salmonella typhi = assay: Antibacterial activity against Salmonella enterica serovar Typhi by broth microdilution method; type: functional, Salmonella enterica subsp. enterica serovar Typhi
Salmonella enteritidis [1] = assay: Antibacterial activity against Salmonella enterica serovar Enteritidis assessed as percent susceptible isolates by broth microdilution method; type: functional, Salmonella enterica subsp. enterica serovar Enteritidis; conditions: pooled result: one value given for 5 cell lines, strains, targets or settings
Escherichia coli [2] = assay: Antibacterial activity against Escherichia coli assessed as percent susceptible isolates by broth microdilution method; type: functional
Aeromonas veronii [3] = assay: Antibacterial activity against Aeromonas veronii by broth microdilution method; type: functional
Vibrio cholerae [4] = assay: Antibacterial activity against Vibrio cholerae assessed as percent resistant isolates by broth microdilution method; type: functional
Aeromonas sobria [5] = assay: Antibacterial activity against Aeromonas sobria assessed as percent susceptible isolates by broth microdilution method; type: functional
Plesiomonas shigelloides [6] = assay: Antibacterial activity against Plesiomonas shigelloides assessed as percent resistant isolates by broth microdilution method; type: functional
Shigella sonnei [7] = assay: Antibacterial activity against Shigella sonnei by broth microdilution method; type: functional
Vibrio sp. [8] = assay: Antibacterial activity against Vibrio sp. assessed as percent resistant isolates by broth microdilution method; type: functional
[9] = test system: Yersinia pseudotuberculosis; assay: Antibacterial activity against Yersinia pseudotuberculosis by broth microdilution method; type: functional
Aeromonas hydrophila [10] = assay: Antibacterial activity against Aeromonas hydrophila by broth microdilution method; type: functional
Vibrio parahaemolyticus [11] = assay: Antibacterial activity against Vibrio parahaemolyticus assessed as percent resistant isolates by broth microdilution method; type: functional
Aeromonas caviae [12] = assay: Antibacterial activity against Aeromonas caviae by broth microdilution method; type: functional
Vibrio sp. [13] = assay: Antibacterial activity against Vibrio sp. by broth microdilution method; type: functional
Campylobacter jejuni = assay: Antibacterial activity against Campylobacter jejuni by broth microdilution method; type: functional
Aeromonas sobria [14] = assay: Antibacterial activity against Aeromonas sobria by broth microdilution method; type: functional
Vibrio cholerae [15] = assay: Antibacterial activity against Vibrio cholerae by broth microdilution method; type: functional
Vibrio fluvialis [16] = assay: Antibacterial activity against Vibrio fluvialis assessed as percent susceptible isolates by broth microdilution method; type: functional
Yersinia enterocolitica [17] = assay: Antibacterial activity against Yersinia enterocolitica assessed as percent resistant isolates by broth microdilution method; type: functional
Salmonella enteritidis [18] = assay: Antibacterial activity against Salmonella enterica serovar Enteritidis by broth microdilution method; type: functional, Salmonella enterica subsp. enterica serovar Enteritidis
Salmonella paratyphi = assay: Antibacterial activity against Salmonella enterica serovar Paratyphi by broth microdilution method; type: functional, Salmonella enterica subsp. enterica serovar Paratyphi A
Escherichia coli [19] = assay: Antibacterial activity against Escherichia coli by broth microdilution method; type: functional
Aeromonas hydrophila [20] = assay: Antibacterial activity against Aeromonas hydrophila assessed as percent resistant isolates by broth microdilution method; type: functional
Salmonella typhimurium [21] = assay: Antibacterial activity against Salmonella enterica serovar Typhimurium assessed as percent resistant isolates by broth microdilution method; type: functional, Salmonella enterica subsp. enterica serovar Typhimurium; conditions: pooled result: one value given for 8 cell lines, strains, targets or settings
Escherichia coli [22] = assay: Antibacterial activity against Escherichia coli assessed as percent resistant isolates by broth microdilution method; type: functional
Plesiomonas shigelloides [23] = assay: Antibacterial activity against Plesiomonas shigelloides by broth microdilution method; type: functional
Salmonella typhimurium [24] = assay: Antibacterial activity against Salmonella enterica serovar Typhimurium by broth microdilution method; type: functional, Salmonella enterica subsp. enterica serovar Typhimurium
Aeromonas hydrophila [25] = assay: Antibacterial activity against Aeromonas hydrophila assessed as percent susceptible isolates by broth microdilution method; type: functional
Aeromonas veronii [26] = assay: Antibacterial activity against Aeromonas veronii assessed as percent susceptible isolates by broth microdilution method; type: functional
Shigella boydii [27] = assay: Antibacterial activity against Shigella boydii assessed as percent susceptible isolates by broth microdilution method; type: functional; conditions: pooled result: one value given for 3 cell lines, strains, targets or settings
Aeromonas caviae [28] = assay: Antibacterial activity against Aeromonas caviae assessed as percent resistant isolates by broth microdilution method; type: functional
[29] = test system: Yersinia pseudotuberculosis; assay: Antibacterial activity against Yersinia pseudotuberculosis assessed as percent susceptible isolates by broth microdilution method; type: functional
Aeromonas veronii [30] = assay: Antibacterial activity against Aeromonas veronii assessed as percent resistant isolates by broth microdilution method; type: functional
Vibrio parahaemolyticus [31] = assay: Antibacterial activity against Vibrio parahaemolyticus by broth microdilution method; type: functional
Shigella sonnei [32] = assay: Antibacterial activity against Shigella sonnei assessed as percent resistant isolates by broth microdilution method; type: functional; conditions: pooled result: one value given for 4 cell lines, strains, targets or settings
Vibrio fluvialis [33] = assay: Antibacterial activity against Vibrio fluvialis assessed as percent resistant isolates by broth microdilution method; type: functional
Shigella boydii [34] = assay: Antibacterial activity against Shigella boydii by broth microdilution method; type: functional
[35] = Antibacterial activity against Salmonella enterica serovar Heidelberg by broth microdilution method; type: functional, Salmonella enterica subsp. enterica serovar Heidelberg
[36] = Antibacterial activity against Salmonella enterica serovar Newport by broth microdilution method; type: functional, Salmonella enterica subsp. enterica serovar Newport
Yersinia enterocolitica [37] = assay: Antibacterial activity against Yersinia enterocolitica by broth microdilution method; type: functional
[38] = Antibacterial activity against Salmonella enterica serovar Virchow by broth microdilution method; type: functional, Salmonella enterica subsp. enterica serovar Virchow
Vibrio alginolyticus [39] = assay: Antibacterial activity against Vibrio alginolyticus by broth microdilution method; type: functional
Vibrio vulnificus [40] = assay: Antibacterial activity against Vibrio vulnificus by broth microdilution method; type: functional
Vibrio sp. [41] = assay: Antibacterial activity against Vibrio sp. assessed as percent susceptible isolates by broth microdilution method; type: functional
Aeromonas caviae [42] = assay: Antibacterial activity against Aeromonas caviae assessed as percent susceptible isolates by broth microdilution method; type: functional
Vibrio vulnificus [43] = assay: Antibacterial activity against Vibrio vulnificus assessed as percent resistant isolates by broth microdilution method; type: functional
Shigella dysenteriae = assay: Antibacterial activity against Shigella dysenteriae by broth microdilution method; type: functional
Vibrio alginolyticus [44] = assay: Antibacterial activity against Vibrio alginolyticus assessed as percent resistant isolates by broth microdilution method; type: functional
Yersinia enterocolitica [45] = assay: Antibacterial activity against Yersinia enterocolitica assessed as percent susceptible isolates by broth microdilution method; type: functional
Campylobacter coli = assay: Antibacterial activity against Campylobacter coli by broth microdilution method; type: functional
Vibrio parahaemolyticus [46] = assay: Antibacterial activity against Vibrio parahaemolyticus assessed as percent susceptible isolates by broth microdilution method; type: functional
Vibrio alginolyticus [47] = assay: Antibacterial activity against Vibrio alginolyticus assessed as percent susceptible isolates by broth microdilution method; type: functional
Shigella flexneri = assay: Antibacterial activity against Shigella flexneri by broth microdilution method; type: functional
Aeromonas sobria [48] = assay: Antibacterial activity against Aeromonas sobria assessed as percent resistant isolates by broth microdilution method; type: functional
Vibrio vulnificus [49] = assay: Antibacterial activity against Vibrio vulnificus assessed as percent susceptible isolates by broth microdilution method; type: functional
Vibrio cholerae [50] = assay: Antibacterial activity against Vibrio cholerae assessed as percent susceptible isolates by broth microdilution method; type: functional
Vibrio fluvialis [51] = assay: Antibacterial activity against Vibrio fluvialis by broth microdilution method; type: functional
Plesiomonas shigelloides [52] = assay: Antibacterial activity against Plesiomonas shigelloides assessed as percent susceptible isolates by broth microdilution method; type: functional

CC1(C)S[C@@H]2[C@H](NC(=O)[C@H](N)c3ccccc3)C(=O)N2[C@H]1C(=O)O [AMPICILLIN]
32 µg/mL: MIC50 [9] | MIC90 [9] | MIC90 (Campylobacter jejuni) | MIC50 (Yersinia enterocolitica [37]) | MIC90 (Yersinia enterocolitica [37]) | MIC90 (Campylobacter coli)
98%: Activity (Aeromonas hydrophila [20]) | Activity (Aeromonas caviae [28]) | Activity (Aeromonas veronii [30]) | Activity (Aeromonas sobria [48])
128 µg/mL: MIC50 (Shigella sonnei [7]) | MIC50 (Shigella boydii [34]) | MIC50 (Shigella dysenteriae) | MIC50 (Shigella flexneri)
59.4%: Activity (Shigella sonnei [32])
1 µg/mL: MIC50 (Salmonella enteritidis [18]) | MIC50 (Salmonella typhimurium [24])
22.8%: Activity (Salmonella typhimurium [21])
77.2%: Activity (Salmonella enteritidis [1])
37%: Activity (Escherichia coli [22])
1%: Activity (Aeromonas sobria [5]) | Activity (Aeromonas hydrophila [25]) | Activity (Aeromonas veronii [26]) | Activity (Aeromonas caviae [42])
8 µg/mL: MIC90 (Vibrio sp. [13]) | MIC90 (Vibrio cholerae [15]) | MIC90 (Vibrio parahaemolyticus [31]) | MIC90 (Vibrio alginolyticus [39]) | MIC90 (Vibrio vulnificus [40]) | MIC90 (Vibrio fluvialis [51])
91.3%: Activity (Yersinia enterocolitica [17])
2 µg/mL: MIC50 (Vibrio sp. [13]) | MIC50 (Campylobacter jejuni) | MIC50 (Vibrio cholerae [15]) | MIC50 (Escherichia coli [19]) | MIC50 (Vibrio parahaemolyticus [31]) | MIC50 (Vibrio alginolyticus [39]) | MIC50 (Vibrio vulnificus [40]) | MIC50 (Campylobacter coli) | MIC50 (Vibrio fluvialis [51])
6.5%: Activity [29] | Activity (Yersinia enterocolitica [45])
0%: Activity (Vibrio cholerae [4]) | Activity (Vibrio sp. [8]) | Activity (Vibrio parahaemolyticus [11]) | Activity (Vibrio fluvialis [33]) | Activity (Vibrio vulnificus [43]) | Activity (Vibrio alginolyticus [44]) | Activity (Plesiomonas shigelloides [52])
90%: Activity (Vibrio fluvialis [16]) | Activity (Vibrio sp. [41]) | Activity (Vibrio parahaemolyticus [46]) | Activity (Vibrio alginolyticus [47]) | Activity (Vibrio vulnificus [49]) | Activity (Vibrio cholerae [50])
40.6%: Activity (Shigella boydii [27])
> 256 µg/mL: MIC90 (Salmonella typhi) | MIC50 (Aeromonas veronii [3]) | MIC90 (Aeromonas veronii [3]) | MIC90 (Shigella sonnei [7]) | MIC50 (Aeromonas hydrophila [10]) | MIC90 (Aeromonas hydrophila [10]) | MIC50 (Aeromonas caviae [12]) | MIC90 (Aeromonas caviae [12]) | MIC50 (Aeromonas sobria [14]) | MIC90 (Aeromonas sobria [14]) | MIC90 (Salmonella enteritidis [18]) | MIC90 (Salmonella paratyphi) | MIC90 (Escherichia coli [19]) | MIC90 (Salmonella typhimurium [24]) | MIC90 (Shigella boydii [34]) | MIC90 [35] | MIC90 [36] | MIC90 [38] | MIC90 (Shigella dysenteriae) | MIC90 (Shigella flexneri)
63%: Activity (Escherichia coli [2])
100%: Activity (Plesiomonas shigelloides [6])
64 µg/mL: MIC (Plesiomonas shigelloides [23]) | MIC50 (Plesiomonas shigelloides [23])
